Test system: female BALB/c or CD-1 mice
Experiment: Intestinal motility model in mice (gastrointestinal transit of red dye)
Format: in vivo
Conditions: mice fasted 24 h, red dye 1 h after treatment, measured 20 min later
Procedure: Intestinal Motility Model:
An intestinal motility model in mice may be used to evaluate of antimuscarinic compounds of formulae I-V as potential treatment for irritable bowel syndrome. In the studies, female BALB/c or CD-1 mice are fasted for 24 hours and then treated orally with one or more compounds of formulae I-V or vehicle. One hour after of treatment, the mice receive a red dye mixture via gastric gavage. Twenty minutes later, the animals are euthanized and the small intestine is removed. Gastrointestinal transit (GIT) is calculated using the measured length of the small intestine from the pyloric sphincter to the ileocecal junction and the distance traveled by the red dye front. Percent inhibition is indicated above bars.

Structure (SMILES) | inhibition of gastrointestinal transit (GIT) (oral dose 30 mg/kg) | inhibition of gastrointestinal transit (GIT) (oral dose 60 mg/kg) | inhibition of gastrointestinal transit (GIT) (oral dose 10 mg/kg) [%]
NC(=O)C(c1ccccc1)(c1ccccc1)[C@@H]1CCN(CCc2ccc3c(c2)CCO3)C1 [reference compound] | about 15% | about 15% | –
Cc1ccc(O)c([C@H](CC[N+](C)(C(C)C)C(C)C)c2ccccc2)c1 [Example 3, (3R)-3-(2-Hydroxy-5-methylphenyl)-N,N-diisopropyl-N-methyl-3-phenylpropan-1-aminium bromide] | 29% | 28% | 17
C[N+]1(CCc2ccc3c(c2)CCO3)CC[C@@H](C(C(N)=O)(c2ccccc2)c2ccccc2)C1.[I-] (stereo partly drawn) [Example 27, (3S)-3-(2-amino-2-oxo-1,1-diphenylethyl)-1-[2-(2,3-dihydro-1-benzofuran-5-yl)ethyl]-1-methylpyrrolidinium iodide] | 20% | 30% | 13

— patent publication US20040220224A1, “Method of treating irritable bowel syndrome” (Pfizer Inc, priority 2003, published 2004)
